From publication PMC9960821, “Evaluation of Rhenium and Technetium-99m Complexes Bearing Quinazoline Derivatives as Potential EGFR Agents” (Molecules, 2023)

Tests used:
[1] = Lipophilicity, shake-flask distribution coefficient; format: physicochemical; settings: n-octanol/0.1 M phosphate buffer pH 7.4
Description: The pharmacokinetic profile of the studied compounds could be affected by their lipophilicity, expressed as the logarithm of the distribution coefficient (log Do/w). The lipophilicity of complexes 5b and 7b was determined in physiological conditions (n-octanol/0.1 M phosphate buffer pH 7.4). […] The presence of the pyridine ring in the chemical structure of complex […] increases the log D7.4 value, as expected.
The distribution coefficient of the 5b and 7b complexes was determined with the shake-flask method. The RP-HPLC isolated ^99mTc complexes (20 μL, ~75 kBq) were mixed with 2 mL of 1-octanol and 2 mL of phosphate buffer solution (PBS, 0.1 M, pH 7.4) in a centrifuge tube. The mixture was vortexed at room temperature for 2 min and centrifuged at 5000 rpm for 10 min. The radioactivity of each phase (200 μL) was counted in a gamma counter. The distribution coefficient was calculated by dividing the cpm/mL in the 1-octanol phase by those in the buffer, and the results were expressed as logD7.4. Each experiment was run in triplicate.

[2] = Stability of 99mTc complexes in reaction mixture and after isolation in PBS (RP-HPLC); format: physicochemical
Description: The stability of complexes 5b and 7b was studied in their reaction mixture and after isolation by HPLC for up to 24 h.
Stability of ^99mTc complexes in the reaction mixture: Samples of the ^99mTc complexes’ reaction mixture were stored at room temperature for up to 24 h. At 1, 6, and 24 h intervals, 100 μL of each sample was removed and analyzed by RP-HPLC.
Stability of isolated ^99mTc complexes: Purification and isolation of 5b and 7b complexes were performed by injection of the reaction mixture into RP-HPLC and isolation of the eluted compounds’ peaks, corresponding to the elution time of each complex. Followingly, 0.1 M PBS buffer solution (900 µL) was added to a vial containing 100 µL (50–120 MBq) of the isolated technetium-99m complex. The sample was incubated at 37 °C for up to 24 h and analyzed by RP-HPLC at 1, 6, and 24 h intervals.

O=C([O-])CN(CCCCCC(=O)Nc1ccc2ncnc(Nc3cccc(Br)c3)c2c1)Cc1ccccn1.[99Tc+].[C-]#[O+].[C-]#[O+].[C-]#[O+] [Compound 5b, fac-[^99mTc(NNO)(CO)3]]
log D7.4 [1]: 3.27 ± 0.25 | %RCP in PBS for 24 h ([2]; 0.1 M PBS, 37 °C, 24 h): 99 ± 2% | Stability in reaction mixture and after isolation by HPLC ([2]; up to 24 h, room temperature or 37 °C): No decomposition
